Species on record: Rattus norvegicus
Assay: Antiproliferative activity against rat smooth muscle cell (SMC) expressed as relative activity compared to heparin; ri is relative inhibitory activity
Assay type: functional

## C[C@@H]1O[C@H](O[C@H]2[C@H](O)[C@H](O)[C@H](O[C@H]3[C@H](O)[C@H](O)[C@@H](O[C@H]4O[C@H](CO)[C@@H](O)[C@@H](O)[C@@H]4O)O[C@H]3CO)O[C@H]2CO)[C@@H](O)[C@@H](O)[C@@H]1O
  Relative inhibitory activity: 0.6

## OC[C@H]1O[C@H](O[C@H]2O[C@H](CO)[C@@H](O[C@H]3O[C@H](CO)[C@@H](O[C@H]4O[C@H](CO)[C@@H](O)[C@H](O)[C@H]4O)[C@H](O)[C@H]3O)[C@H](O)[C@H]2O)[C@H](O)[C@@H](O)[C@@H]1O
  Relative inhibitory activity: 0.9
